Assay results from patent US7022856B2, “Carboline derivatives” (LIlly Icos LLC., priority 2001, dated 2006).

How the values were obtained:
[1] = target: T1, human recombinant PDE5 (Homo sapiens, UniProt O76074); test: cGMP-PDE inhibition, one-step assay with human recombinant PDE5; assay type: biochemical; conditions: 0.15 μM 8-[H3]-cGMP, 30 min
T1 construct: host or cells: Saccharomyces cerevisiae strain BJ2-54 (ATCC 74465)
Protocol: The compounds of structural formula (I) were tested for an ability to inhibit PDE5. The ability of a compound to inhibit PDE5 activity is related to the IC50 value for the compound, i.e., the concentration of inhibitor required for 50% inhibition of enzyme activity. The IC50 value for compounds pounds of structural formula (I) were determined using recombinant human PDE5.
Recombinant production of human PDE1B, PDE2, PDE4A, PDE4B, PDE4C, PDE4D, PDE5, and PDE7 was carried out similarly to that described in Example 7 of U.S. Pat. No. 5,702,936, incorporated herein by reference, except that the yeast transformation vector employed, which is derived from the basic ADH2 plasmid described in Price et al., Methods in Enzymology, 185, pp. 308–318 (1990), incorporated yeast ADH2 promoter and terminator sequences and the Saccharomyces cerevisiae host was the protease-deficient strain BJ2-54 deposited on Aug. 31, 1998 with the American Type Culture Collection, Manassas, Va., under accession number ATCC 74465. Transformed host cells were grown in 2×SC-leu medium, pH 6.2, with trace metals, and vitamins. After 24 hours, YEP medium-containing glycerol was added to a final concentration of 2×YET/3% glycerol. Approxiately 24 hr later, cells were harvested, washed, and stored at −70° C. […]
Cell pellets (29 g) were thawed on ice with an equal volume of Lysis Buffer (25 mM Tris HCl, pH 8, 5 mM MgCl2, 0.25 mM DTT, 1 mM benzamidine, and 10 μM ZnSO4). Cells were lysed in a Microfluidizer® (Microfluidics Corp.) using nitrogen at 20,000 psi. The lysate was centrifuged and filtered through 0.45 μm disposable filters. The filtrate was applied to a 150 mL column of Q SEPHAROSE® Fast-Flow (Pharmacia). The column was washed with 1.5 volumes of Buffer A (20 mM Bis-Tris Propane, pH 6.8, 1 mM MgCl2, 0.25 mM DTT, 10 μM ZnSO4) and eluted with a step gradient of 125 mM NaCl in Buffer A followed by a linear gradient of 125–1000 mM NaCl in Buffer A. Active fractions from the linear gradient were applied to a 180 mL hydroxyapatite column in Buffer B (20 mM Bis-Tris Propane (pH 6.8), 1 mM MgCl2, 0.25 mM DTT, 10 μM ZnSO4, and 250 mM KCl). After loading, the column was washed with 2 volumes of Buffer B and eluted with a linear gradient of 0–125 mM potassium phosphate in Buffer B. Active fractions were pooled, precipitated with 60% ammonium sulfate, and resuspended in Buffer C (20 mM Bis-Tris Propane, pH 6.8, 125 mM NaCl, 0.5 mM DTT, and 10 μM ZnSO4). The pool was applied to a 140 mL column of SEPHACRYL® S-300 HR and eluted with Buffer C. Active fractions were diluted to 50% glycerol and stored at −20° C.
(§1) cGMP-PDE activity of compounds of the present invention was measured using a one-step assay adapted from Wells et al., Biochim. Biophys. Acta, 384, 430 (1975). The reaction medium contained 50 mM Tris-HCl, pH 7.5, 5 mM magnesium acetate. 250 μg/ml 5′-Nucleotidase, 1 mM EGTA, and 0.15 μM 8-[H^3]-cGMP. Unless otherwise indicated, the enzyme used was a human recombinant PDE5 (ICOS Corp., Bothell, Wash.).
(§2) Compounds of the invention were dissolved in DMSO finally present at 2% in the assay.

[2] = target: T2, PDE5 (bovine aorta) (Bos taurus, UniProt Q28156); test: cGMP-PDE inhibition, one-step assay, enzyme from bovine aorta; assay type: biochemical; conditions: versus bovine aorta (footnote 1)
T2 construct: from tissue; host or cells: bovine aorta
Protocol: as §1, §2

| Structure (SMILES) | IC50 [1] | melting point | IC50 [2] |
| --- | --- | --- | --- |
| O=C(c1ccc2ccccc2c1)N1CCc2c([nH]c3ccccc23)C1c1ccc2c(c1)OCO2 (stereo not drawn) [Example 1, 1-(2H-Benzo[d]1,3-dioxolan-5-yl)(1,2,3,4-tetrahydro-β-carbolin-2-yl)-2-naphthyl ketone] | 0.566 µM | 248 to 249 °C | – |
| O=C(c1ccc2ccccc2c1)N1CCc2c([nH]c3ccccc23)[C@H]1c1ccc2c(c1)OCO2 [Example 2, 1-(2H-benzo[d]1,3-dioxolan-5-yl)(1R)(1,2,3,4-tetrahydro-β-carbolin-2-yl)2-naphthyl ketone] | 0.71 µM | 285 °C | – |
| CC(=O)Nc1ccc(C(=O)N2CCc3c([nH]c4ccccc34)C2c2ccc3c(c2)OCO3)cc1 (stereo not drawn) [Example 4, N-{4[1-(1-Benzo[1,3]dioxol-5-yl-1,3,4,9-tetrahydro-β-carboline-2-yl)-methanoyl]phenyl}acetamide] | – | – | 0.05 µM |
| O=C(c1ccc2nc[nH]c2c1)N1CCc2c([nH]c3ccccc23)C1c1ccc2c(c1)OCO2 (stereo not drawn) [Example 12, 1-(1-Benzo[1,3]dioxol-5-yl-1,3,4,9-tetrahydro-β-carbolin-2-yl)-1-(3H-benzoimidazol-5-yl)methanone] | – | – | 0.18 µM |
| O=C(c1cc2ccccc2s1)N1CCc2c([nH]c3ccccc23)C1c1ccc(C(F)(F)F)cc1 (stereo not drawn) [Example 14] | – | – | 0.2 µM |
| O=C(c1ccc(-c2ccccn2)s1)N1CCc2c([nH]c3ccccc23)C1c1ccccc1 (stereo not drawn) [Example 15] | – | – | 0.001 µM |
| Cc1c(S(=O)(=O)N2CCc3c([nH]c4ccccc34)[C@H]2c2ccc3c(c2)OCO3)sc2ccc(Cl)cc12 [Example 45] | 0.22 µM | 139 to 143 °C | – |
| CN1CCN(c2nccc(N3CCc4c([nH]c5ccccc45)C3c3ccc4c(c3)OCO4)n2)CC1 (stereo not drawn) [Example 54] | 0.56 µM | – | – |
| c1csc(-c2nccc(N3CCc4c([nH]c5ccccc45)C3c3ccc4c(c3)OCO4)n2)c1 (stereo not drawn) [Example 56] | 0.04 µM | – | – |
| c1ccc(-c2ccnc(N3CCc4c([nH]c5ccccc45)C3c3ccc4c(c3)CCO4)n2)cc1 (stereo not drawn) [Example 58] | 0.03 µM | – | – |
| c1cncc(-c2ccnc(N3CCc4c([nH]c5ccccc45)C3c3ccc4c(c3)CCO4)n2)c1 (stereo not drawn) [Example 59] | 0.04 µM | – | – |
| c1cncc(-c2nccc(N3CCc4c([nH]c5ccccc45)C3c3ccc4c(c3)CCO4)n2)c1 (stereo not drawn) [Example 61] | 0.04 µM | – | – |
| c1ccc2c3c([nH]c2c1)C(c1ccc2c(c1)CCO2)N(c1ccnc(N2CCCCC2)n1)CC3 (stereo not drawn) [Example 64] | 0.76 µM | – | – |
| c1coc(-c2ccnc(N3CCc4c([nH]c5ccccc45)C3c3ccc4c(c3)CCO4)n2)c1 (stereo not drawn) [Example 66] | 0.34 µM | – | – |
| c1coc(-c2nccc(N3CCc4c([nH]c5ccccc45)C3c3ccc4c(c3)CCO4)n2)c1 (stereo not drawn) [Example 67] | 0.07 µM | – | – |
| Cc1nccn1-c1cc(N2CCc3c([nH]c4ccccc34)C2c2ccc3c(c2)CCO3)ncn1 (stereo not drawn) [Example 68] | 0.02 µM | – | – |

| Structure (SMILES) | IC50 [1] | melting point | IC50 [2] |
| --- | --- | --- | --- |
| c1cncc(-c2nccc(N3CCc4c([nH]c5ccccc45)C3c3ccc4c(c3)CCO4)n2)c1 (stereo not drawn) [Example 69] | 0.009 µM | – | – |
| CN(C)CCOc1ccc(-c2ccnc(N3CCc4c([nH]c5ccccc45)C3c3ccc4c(c3)CCO4)n2)cc1 (stereo not drawn) [Example 70] | 0.02 µM | – | – |
| Cc1ncn(-c2cc(N3CCc4c([nH]c5ccccc45)C3c3ccc4c(c3)CCO4)ncn2)c1C (stereo not drawn) [Example 71] | 0.02 µM | – | – |
| Oc1ccc(-c2ccnc(N3CCc4c([nH]c5ccccc45)C3c3ccc4c(c3)CCO4)n2)cc1 (stereo not drawn) [Example 72] | 0.01 µM | – | – |
| Cc1cn(-c2ccnc(N3CCc4c([nH]c5ccccc45)C3c3ccc4c(c3)CCO4)n2)cn1 (stereo not drawn) [Example 74] | 0.04 µM | – | – |
| c1ccc(-c2cc(N3CCc4c([nH]c5ccccc45)C3c3ccc4c(c3)CCO4)ncn2)cc1 (stereo not drawn) [Example 75] | 0.007 µM | – | – |
| c1cncc(-c2cc(N3CCc4c([nH]c5ccccc45)C3c3ccc4c(c3)CCO4)ncn2)c1 (stereo not drawn) [Example 77] | 0.004 µM | – | – |
| Cc1nccn1-c1ccnc(N2CCc3c([nH]c4ccccc34)C2c2ccc3c(c2)CCO3)n1 (stereo not drawn) [Example 78] | 0.06 µM | – | – |
| Oc1ccc(-c2cc(N3CCc4c([nH]c5ccccc45)C3c3ccc4c(c3)CCO4)ncn2)cc1 (stereo not drawn) [Example 80] | 0.05 µM | – | – |
| CC(=O)Oc1ccc(-c2cc(N3CCc4c([nH]c5ccccc45)C3c3ccc4c(c3)CCO4)ncn2)cc1 (stereo not drawn) [Example 81] | 0.003 µM | – | – |
| CN(C)CCOc1ccc(-c2cc(N3CCc4c([nH]c5ccccc45)C3c3ccc4c(c3)CCO4)ncn2)cc1 (stereo not drawn) [Example 82] | 0.005 µM | – | – |
| Cc1ccc(C2c3[nH]c4ccccc4c3CCN2C(=O)c2cc3ccccc3s2)cc1 (stereo not drawn) [Example 83] | 0.082 µM | – | – |
| O=C(c1cc2ccccc2s1)N1CCc2c([nH]c3ccccc23)C1c1cccc(Cl)c1 (stereo not drawn) [Example 85] | 0.835 µM | – | – |
| O=C(c1cc2ccccc2s1)N1CCc2c([nH]c3ccccc23)C1c1ccccc1 (stereo not drawn) [Example 86] | 0.9 µM | – | – |
| c1ccc2c3c([nH]c2c1)C(c1ccc2c(c1)OCO2)N(c1nccc(N2CCOCC2)n1)CC3 (stereo not drawn) [Example 87] | 1.01 µM | – | – |

More lines, now with the values ahead:

| IC50 [1] | melting point | IC50 [2] | Structure (SMILES) |
| --- | --- | --- | --- |
| – | – | 0.44 µM | O=C(c1ccccc1)N1CCc2c([nH]c3ccccc23)C1c1ccc2c(c1)OCO2 (stereo not drawn) [Example 3] |
| – | – | 0.07 µM | CC(=O)Nc1ccc(C2c3[nH]c4ccccc4c3CCN2C(=O)c2cc3ccccc3s2)cc1 (stereo not drawn) [Example 16] |
| – | – | 0.25 µM | O=C(c1ccc(-c2ccccn2)s1)N1CCc2c([nH]c3ccccc23)C1c1ccc2c(c1)OCO2 (stereo not drawn) [Example 17] |
| 0.07 µM | – | – | Clc1nc(N2CCc3c([nH]c4ccccc34)C2c2ccc3c(c2)OCO3)c2nc[nH]c2n1 (stereo not drawn) [Example 53] |
| 0.02 µM | – | – | c1ccc(-c2nccc(N3CCc4c([nH]c5ccccc45)C3c3ccc4c(c3)OCO4)n2)cc1 (stereo not drawn) [Example 55] |
| 0.06 µM | – | – | c1ccc2c3c([nH]c2c1)C(c1ccc2c(c1)CCO2)N(c1ccnc(-n2ccnc2)n1)CC3 (stereo not drawn) [Example 57] |
| 0.07 µM | – | – | c1ccc2c3c([nH]c2c1)C(c1ccc2c(c1)CCO2)N(c1nccc(-n2ccnc2)n1)CC3 (stereo not drawn) [Example 60] |
| 0.05 µM | – | – | c1csc(-c2nccc(N3CCc4c([nH]c5ccccc45)C3c3ccc4c(c3)CCO4)n2)c1 (stereo not drawn) [Example 62] |
| 0.04 µM | – | – | Cc1nccn1-c1nccc(N2CCc3c([nH]c4ccccc34)C2c2ccc3c(c2)CCO3)n1 (stereo not drawn) [Example 63] |
| 0.02 µM | – | – | c1ccc2c3c([nH]c2c1)C(c1ccc2c(c1)CCO2)N(c1cc(-n2ccnc2)ncn1)CC3 (stereo not drawn) [Example 65] |
| 0.03 µM | – | – | Cc1ncn(-c2nccc(N3CCc4c([nH]c5ccccc45)C3c3ccc4c(c3)CCO4)n2)c1C (stereo not drawn) [Example 73] |
| 0.01 µM | – | – | Cc1cn(-c2cc(N3CCc4c([nH]c5ccccc45)C3c3ccc4c(c3)CCO4)ncn2)cn1 (stereo not drawn) [Example 76] |
| 0.004 µM | – | – | COc1ccc(-c2cc(N3CCc4c([nH]c5ccccc45)C3c3ccc4c(c3)CCO4)ncn2)cc1 (stereo not drawn) [Example 79] |
| 0.309 µM | – | – | O=C(c1cc2ccccc2s1)N1CCc2c([nH]c3ccccc23)C1c1ccc2c(c1)OCO2 (stereo not drawn) [Example 84] |
